Measurements published in PMC7290497, “Tubulin Resists Degradation by Cereblon-Recruiting PROTACs” (Cells, 2020).
Entries after “also recorded” stand apart in the source; their conditions may differ. Like-named read-outs stand apart in the source and are kept apart here. Square brackets hold non-standard residues; d marks the D form. Peptide text beside a SMILES is read from it. * marks the point of attachment. Dolaproine = CO[C@@H]([C@@H]1CCCN1)[C@@H](C)C(=O)O; X1 = O=C1CCC(N2C(=O)c3cccc(*)c3C2=O)C(=O)N1; Dil = CC[C@H](C)[C@H](NC)[C@@H](CC(=O)O)OC; X2 = C[C@@H](N*)[C@@H](O)c1ccccc1; NMeV = CN[C@H](C(=O)O)C(C)C; 12Ado = NCCCCCCCCCCCC(=O)O

Assays:
CRBN = target: T1, CRBN (Homo sapiens, UniProt Q96SW2); experiment: Competitive displacement assay for cellular CRBN engagement (rescue of dBET6-mediated BRD4BD2-eGFP degradation, mCherry reporter cells); type: cell-based
T1 construct: Quantitative assessment of intracellular CRBN engagement; endogenous in cells; host or cells: Flp293T-based BRD4BD2-GFP mCherry reporter cell line
Procedure: (§1) The human telomerase reverse transcriptase immortalized retinal pigment epithelium 1 (hTert-RPE1) cell line used in this study was grown at 37 °C with 5% CO2 in a humidified incubator. Cells were grown in Dulbecco’s modified medium (nutrient mixture F12, DMEM/F12) supplemented with 10% fetal bovine serum, and 1% (v:v) penicillin/streptomycin (pen/strep). The Flp293T-based BRD4BD2-GFP mCherry reporter cell line was grown in DMEM supplemented with 10% FBS. The synthesized small molecules and the parental microtubule poisons were dissolved in DMSO; 0.01% DMSO was used as vehicle control.
Supplementary Figure S3. MMAE-CRBN compounds engage CRBN in cells. Quantitative assess-ment of intracellular CRBN engagement using a BRD4BRD2-eGFP-mCherry reporter assay. CRBN engagement was assessed by monitoring rescue of dBET6-mediated degradation of BRD4BRD2-eGFP.
Cells stably expressing BRD4BRD2-eGFP and mCherry were treated with 100 nM of dBET6, a specific degrader of BRD4BRD2, and increasing concentrations of the candidate tubulin degraders. The eGFP and mCherry signals were quantified by laser scanning cytometry and the concentration of compound that rescued 50% of BRD4BRD2-eGFP fluorescence (EC50) was determined by nonlinear regression. Data from n=2 biological replicates. Error bars represent standard deviation of the mean. CPD – compound with […]
(also on this page, place not known: BRD4 BRD2-eGFP-mCherry (BJG-02-095)1 100Relative abundance 100Relative abundance 100Relative abundance) […]
Supplementary Figure S6. CA4-CRBN compounds engage CRBN in cells. Quantitative assessment of intracellular CRBN engagement using a BRD4BRD2-eGFP-mCherry reporter assay. CRBN engage-ment was assessed by monitoring rescue of dBET6-mediated degradation of BRD4BRD2-eGFP. Cells stably expressing BRD4BRD2-eGFP and mCherry were treated with 100 nM of dBET6, a specific degrad-er of BRD4BRD2, and increasing concentrations of the candidate tubulin degraders. The eGFP and […]
(also on this page, place not known: BRD4 BRD2-eGFP. (BJG-02-158)10 Relative abundance 100Relativeabundance) […]
3. Competitive displacement assay for cellular CRBN engagement
Cells stably expressing the BRD4BD2-GFP with mCherry reporter were seeded at 30-50% confluency in 384-well plates with 50 µL FluoroBrite DMEM media (Thermo Fisher Scientific A18967) containing 10% FBS per well a day before compound treatment. Compounds and 100 nM dBET6 were dispensed using a D300e Digital Dispenser (HP), normalized to 0.5% DMSO, and incubated with cells for 5 hours. The assay plate was imaged immediately using an Acumen High Content Imager (TTP Labtech) with 488 nm and 561 nm lasers in 2 µm x 1 µm grid per well format. The resulting images were analyzed using CellProfiler.
A series of image analysis steps (‘image analysis pipeline’) was constructed. First, the red and green channels were aligned and cropped to target the middle of each well (to avoid analysis of heavily clumped cells at the edges), and a background illumination function was calculated for both red and green channels of each well individually and subtracted to correct for illumination variations across the 384-well plate from various sources of error. An additional step was then applied to the green channel to suppress the analysis of large auto fluorescent artifacts and enhance the analysis of cell specific fluorescence by way of selecting for objects under a given size, 30 A.U., and with a given shape, speckles. mCherry-positive cells were then identified in the red channel filtering for objects between 8-60 pixels in diameter and using intensity to distinguish between clumped objects. The green channel was then segmented into GFP positive and negative areas and objects were labeled as GFP positive if at least 40% of it overlapped with a GFP positive area. The fraction of GFP-positive cells/mCherry-positive cells in each well was then calculated, and the green and red images were rescaled for visualization. The values for the concentrations that lead to a 50% […]

[1] = tested on: α-tubulin (TUBA) and β-tubulin (TUBB) in hTert-RPE1 cells; experiment: Western blot of tubulin protein levels (tubulin degradation) in whole-cell extracts; type: cell-based, human; conditions: for degradation of tubulin (TUBA and TUBB protein levels, Western blot): normalized to ACTB and DMSO; for tubulin degradation in time-course experiment: five hours, data not shown
Procedure: as §1
Whole-cell extracts for immunoblot analysis were prepared by cell lysis in 2× SDS sample buffer composed of 50 mM Tris-HCl pH 6.8, 2% SDS, 10% glycerol, 143 mM β-mercaptoethanol, 12.5 mM EDTA, and 0.02% bromophenol blue in water. Samples were denatured at 100 °C for 10 min and then subjected to SDS-PAGE gel electrophoresis on 1.5 mm NuPAGE Novex 4–12% Bis-Tris Protein Gels (Thermo Fisher Scientific, Waltham, MA, USA), using the Mini Trans-Blot Cell system (BioRad, Hercules, CA, USA).
(§2) The Precision Plus Protein Dual Color Standard ladder was used for all immunoblots (BioRad, USA). Primary antibodies were diluted: 1:5000 beta-actin (Cell Signaling Technologies, Danvers, MA, USA, #4970), 1:15000 GAPDH (Cell Signaling Technologies, #2118), 1:10000 alpha-tubulin (DM1alpha, Millipore, Burlington, MA, USA, #05-829), and 1:5000 beta-tubulin (Cell Signaling Technologies, # 2128). Secondary antibodies were diluted: 1:15000 goat anti-mouse DyLight 680 conjugated (Thermo Fisher Scientific, #35518), 1:15000 goat anti-rabbit DyLight 800 conjugated (Thermo Fisher Scientific, #35571). The Odyssey Infra-Red Imaging System (LI-COR, Lincoln, NE, USA) equipped with the Image Studio software was used to image and analyze immunoblots. Data plotting and statistical analysis were carried out in Microsoft Excel (Redmond, WA, USA) and R (Vienna, Austria).
As positive controls, we prepared two of the literature molecules, T007-1 and a related T138067 (Figure 2A). We modified the originally reported synthesis of T007-1, instead using 2-chloro-5-nitrobenzoyl chloride, as the reported dicyclohexyl carbodiimide (DCC) coupling with 2-chloro-5-nitrobenzoic acid led to inseparable mixtures of mono- and diacylation (See Supplementary Material for full details). We treated human retinal pigment epithelium 1 (hTert-RPE1) cells, a widely used cell model, with T007-1 and T138067 degraders at a range of concentrations from 5 nM to 10 μM. Prolonged compound treatment was expected to cause activation of the spindle assembly checkpoint and an arrest in the mitotic stage of the cell cycle, which could have an effect on tubulin levels independently of tubulin degradation. To exclude this possibility, we used contact-inhibited quiescent cells (hTert-RPE1 cells stop proliferating at high growth density). In addition, to minimize the probability that some cells escape the cell cycle arrest and continue to proliferate, we opted for a short 5 h treatment of cells with the compounds, which was previously reported to be sufficient to degrade tubulin [35]. […] Therefore, as previously reported, this series of compounds led to degradation of tubulin and a global decrease of both soluble and polymerized tubulin levels.

[2] = tested on: microtubule cytoskeleton in hTert-RPE1 cells; experiment: Biochemical partitioning of tubulin into soluble (S) and polymerized (P) fractions; type: cell-based, human; conditions: 1 μM, 5 h
Procedure: as §1
For tubulin partitioning into soluble and polymerized fractions, cells were grown in 12-well dishes at 70–80% confluence. Cells were gently washed with PBS pre-warmed to 37 °C. Soluble tubulin was extracted by incubating cells in 300 µL of tubulin extraction buffer containing 60 mM PIPES (pH 6.8), 25 mM HEPES (pH 7.2), 10 mM EGTA (pH 7–8), 2 mM MgCl2, 0.5% TritonX-100, 10 µM Paclitaxel (Sigma Aldrich, St. Louis, MO USA), and a protease inhibitor tablet (Roche, Branchburg, NJ, USA) for 2 min at room temperature. The extraction buffer with soluble protein was collected and mixed with 100 µL 4× SDS sample buffer. The remaining material containing polymerized tubulin was then collected by adding 400 µL 1× SDS sample buffer and scraping the dish. All samples were denatured at 100 °C for 10 min. Equal aliquots of samples were further concentrated two-fold by evaporation at 100 °C for 3–5 min immediately prior to SDS-PAGE gel electrophoresis.
as §2

[3] = IC50, intracellular CRBN engagement (rescue of 50% of BRD4BRD2-eGFP fluorescence), Supplementary Figures S3 and S6, 100 nM dBET6, n=2 biological replicates
[4] = hTert-RPE1 cells, 5 nM to 10 μM, 5 h

SMILES | cell permeability as judged by the cellular CRBN engagement assay (CRBN) | IC50 (CRBN; [3]) | degradation of tubulin (TUBA and TUBB protein levels, Western blot) [1, 4] | microtubule destabilization (soluble S vs polymerized P fraction of tubulin) [2] | other results
CC[C@H](C)[C@@H]([C@@H](CC(=O)N1CCC[C@H]1[C@H](OC)[C@@H](C)C(=O)N[C@H](C)[C@@H](O)c1ccccc1)OC)N(C)C(=O)[C@@H](NC(=O)[C@H](C(C)C)N(C)CCOCCOCCOCCOCCNc1cccc2c1C(=O)N(C1CCC(=O)NC1=O)C2=O)C(C)C (stereo partly shown) [Compound 1] | cell-permeable | 342 nM | no degradation | microtubule destabilization | IC50 (CRBN; IC50, cellular CRBN engagement, 100 nM dBET6, 5 hours): 342 nM
CC[C@H](C)[C@@H]([C@@H](CC(=O)N1CCC[C@H]1[C@H](OC)[C@@H](C)C(=O)N[C@H](C)[C@@H](O)c1ccccc1)OC)N(C)C(=O)[C@@H](NC(=O)[C@H](C(C)C)N(C)C(=O)CCCCCCCCCCCNc1cccc2c1C(=O)N(C1CCC(=O)NC1=O)C2=O)C(C)C (stereo partly shown) [Compound 3] ({X1-12Ado}-[NMeV]V[Dil][Dolaproine]-X2) | – | – | no degradation | microtubule destabilization | CRBN engagement / CRBN binding in cells (in words) (CRBN; 100 nM dBET6, 5 hours): very weak CRBN engagement; IC50 (CRBN; 100 nM dBET6, 5 hours, read-out: IC50, cellular CRBN engagement): ~10000 nM
CC[C@H](C)[C@@H]([C@@H](CC(=O)N1CCC[C@H]1[C@H](OC)[C@@H](C)C(=O)N[C@H](C)[C@@H](O)c1ccccc1)OC)N(C)C(=O)[C@@H](NC(=O)[C@H](C(C)C)N(C)CCOCCOCCOCCNc1cccc2c1C(=O)N(C1CCC(=O)NC1=O)C2=O)C(C)C (stereo partly shown) [Compound 5] | – | 467 nM | – | – | –
CC[C@H](C)[C@@H]([C@@H](CC(=O)N1CCC[C@H]1[C@H](OC)[C@@H](C)C(=O)N[C@H](C)[C@@H](O)c1ccccc1)OC)N(C)C(=O)[C@@H](NC(=O)[C@H](C(C)C)N(C)CCOCCOCCOCCOCCOCCNc1cccc2c1C(=O)N(C1CCC(=O)NC1=O)C2=O)C(C)C (stereo partly shown) [Compound 6] | – | 440 nM | – | – | –
COc1ccc(/C=C\c2cc(OC)c(OC)c(OC)c2)cc1OCCOCCOCCOCCNc1cccc2c1C(=O)N(C1CCC(=O)NC1=O)C2=O (stereo not shown) [Compound 10] | cell permeable | 1480 nM | – | – | –
COc1ccc(/C=C\c2cc(OC)c(OC)c(OC)c2)cc1OCCOCCOCCOCCOCCNc1cccc2c1C(=O)N(C1CCC(=O)NC1=O)C2=O (stereo not shown) [Compound 11] | cell permeable | 572 nM | – | – | –
COc1ccc(/C=C\c2cc(OC)c(OC)c(OC)c2)cc1OCCOCCOCCOCCOCCOCCNc1cccc2c1C(=O)N(C1CCC(=O)NC1=O)C2=O (stereo not shown) [Compound 12] | cell permeable | 655 nM | – | – | –
COc1ccc(/C=C\c2cc(OC)c(OC)c(OC)c2)cc1NCCOCCOCCOCCOCCNc1cccc2c1C(=O)N(C1CCC(=O)NC1=O)C2=O (stereo not shown) [Compound 13] | – | – | unsuccessful in degrading tubulin | no microtubule-destabilizing activity | CRBN engagement / CRBN binding in cells (in words) (CRBN; 100 nM dBET6, 5 hours): efficient binding to CRBN; IC50 (CRBN; Supplementary Figures S3 and S6, 100 nM dBET6, n=2 biological replicates, read-out: IC50, intracellular CRBN engagement (rescue of 50% of BRD4BRD2-eGFP fluorescence)): 3720 nM
O=C(Nc1ccnc(NCc2cccc(Oc3ccccc3)c2)c1)c1cc([N+](=O)[O-])ccc1Cl [Compound T007-1] | – | – | decrease in tubulin levels | decreased levels of both soluble (S) and polymerized (P) fractions of tubulin; also recorded: both the S and the P fraction of tubulin decrease | tubulin degradation in time-course experiment [1]: efficiently degrade tubulin; potency in decreasing tubulin levels, T007-1 compared with T138067 [1, 4]: significantly more potent
COc1ccc(NS(=O)(=O)c2c(F)c(F)c(F)c(F)c2F)cc1F [Compound T138067] | – | – | decrease in tubulin levels | both the S and the P fraction of tubulin decrease | tubulin degradation in time-course experiment [1]: efficiently degrade tubulin
